# Laboratory results from PubChem BioAssay AID1996.
# Where “and” joins values, the source holds several entries; their conditions need not be identical. Identical values can stand only once.
# Details: buffer; pH 7.4; 200.0 µM
row,Compound,solubility kinetic
1,O=S(=O)(c1ccc(SCCO)nc1)N1CCOCC1,> 45.7 µg/mL
2,COCCCNC(=S)Nc1cc(C)c(C)cc1C,> 40 µg/mL
3,CC1CCN(C(=O)c2ccc3c(c2)OCO3)CC1,36.9 µg/mL
4,C=CCn1c(SCC(=O)Nc2cc(C)on2)nnc1-c1ccccc1OC,> 57.8 µg/mL
5,CCNc1nc(=S)nc(NCc2ccccc2)[nH]1,4.6 µg/mL
6,Clc1ccc2c(NCc3ccccn3)ccnc2c1,> 40.5 µg/mL
7,O=C1CNC(=S)N1c1nc2ccccc2s1,31.6 µg/mL
8,Cc1ccc2ncnc(Oc3ncccc3[N+](=O)[O-])c2c1,34.7 µg/mL
9,O=c1[nH]c2ccc(S(=O)(=O)Nc3ccc(Cl)cc3)cc2[nH]1,2.2 µg/mL
10,Cc1noc(NS(=O)(=O)c2ccc(NC(=O)c3ccc(F)cc3)cc2)c1C,> 58.4 µg/mL
11,Cc1ccc(S(=O)(=O)N2CCN(C(=O)c3cccs3)CC2)cc1C,44.4 µg/mL
12,Nc1ccccc1SC1CC(=O)N(c2ccc3c(c2)OCO3)C1=O (stereo not given),< 0.4 µg/mL
13,CC(C)C(=O)NC(=S)Nc1c(Cl)ccc2nsnc12,40.1 µg/mL
14,O=C(N/N=C/c1cccs1)c1cccnc1,> 34.7 µg/mL
15,COc1ccc2[nH]c(C(=O)NCCN3CCCCC3)cc2c1,39.7 µg/mL
16,CCOc1ccc(Nc2nc(N)c([N+](=O)[O-])c(N3CCOCC3)n2)cc1,2.4 µg/mL
17,Cc1ccc(OC(C)C(=O)Nc2cc(C)on2)cc1 (stereo not given),36.2 µg/mL
18,Clc1ccc(-c2nc3ccccn3c2CN2CCSCC2)cc1,1.9 µg/mL
19,O=C(CN1C(=O)c2ccccc2C1=O)N(CCO)Cc1ccccc1,48.7 µg/mL
20,Cc1ccc(NC(=O)OCCNC(=O)OC(C)C)cc1,33.1 µg/mL
21,Cc1ccc(N2C(=O)CC(=O)NC2=O)cc1Cl,> 37.9 µg/mL
22,Cc1ccc(OCC(=O)N2CCc3ccccc3C2)c([N+](=O)[O-])n1,> 49.1 µg/mL
23,CCOC(=O)c1cc([N+](=O)[O-])sc1NC(=O)CC,5.3 µg/mL
24,O=C(NC1CCOc2ccccc21)c1ccc(=O)[nH]c1 (stereo not given),> 40.5 µg/mL

row,Compound,solubility kinetic
1,Cc1c(CCC(=O)NC2CC2)c(=O)oc2cc(O)ccc12,> 43.1 µg/mL
2,COc1ccc(Cl)cc1NC(=O)Nc1cc(C)on1,0.9 µg/mL
3,O=C(Nc1ccc([N+](=O)[O-])cc1)N1CCCCCC1,> 39.5 µg/mL
4,O=C(Nc1nccs1)c1ccc(-c2ccc(F)cc2)o1,1.5 µg/mL
5,O=C(NC1CCCc2ccccc21)C12CC3CC(CC(O)(C3)C1)C2 (stereo not given),41.4 µg/mL
6,OC1CCCCC1N1CCC(c2ccccc2)CC1 (stereo not given),> 38.9 µg/mL
7,Cc1ccccc1C(=O)Nc1cccc(NC(=O)c2ccccc2[N+](=O)[O-])c1,1.2 µg/mL
8,O=C(CSc1ccc(C(F)(F)F)cc1[N+](=O)[O-])N1CCOCC1,22.9 µg/mL
9,O=C1CN(C(=O)COC(=O)c2ccc(C(F)(F)F)cc2)c2ccccc2N1,2.4 µg/mL
10,Cc1cc(NC(=O)c2ccc(Cl)cc2Cl)n(CCC#N)n1,> 48.5 µg/mL
11,CCc1noc(C)c1C(=O)N1CCN(S(=O)(=O)c2ccc(Cl)s2)CC1,55.4 µg/mL
12,Cc1cn(S(=O)(=O)c2ccc(Cl)cc2)c(C)n1,8.6 µg/mL
13,N#Cc1ccc(N2CCCNCC2)nc1,> 30.3 µg/mL
14,O=C(NC(=S)N1CCCC(C(F)(F)F)C1)c1ccc(F)cc1 (stereo not given),37.9 µg/mL
15,OCC1(CO)COC(/C=C/c2ccccc2)=N1,> 35 µg/mL
16,COc1ccccc1C(=O)NC(=O)Nc1cccc(Cl)c1,< 0.3 µg/mL
17,Cc1cccc(C)c1NC(=O)c1ccc(N2CCCC2=O)cc1,> 46.3 µg/mL
18,C=CCn1c(O)c(/C=N/NC(=O)c2ccncc2)c(=O)[nH]c1=O,> 47.3 µg/mL
19,O=[N+]([O-])c1cccc2c(S(=O)(=O)N3CCOCC3)cccc12,35.4 µg/mL
20,O=C(Cc1ccc(Br)cc1)OCC(=O)c1ccc[nH]1,10.3 µg/mL
21,CC1(C)Oc2ccc(C(=O)Nc3ccccc3)cc2N(CC#N)C1=O,> 50.3 µg/mL
22,Cc1ccc(CNCCNCCO)s1.Cl,> 43.1 µg/mL
23,C=CCN(C(=O)COC(=O)c1cc[n+]([O-])cc1)c1nc(-c2ccccc2)cs1,6.1 µg/mL
24,CCN(Cc1ccccc1)C(=O)COc1ccccc1,> 40.4 µg/mL

row,Compound,solubility kinetic
1,CCN(CC)C(=O)c1cccc2c1-c1ccccc1C2=O,41.5 µg/mL
2,COc1ccc(CNC(=O)COc2cc(O)c3c(c2)OC(C)(C)CC3=O)cc1,43.5 µg/mL
3,O=C(CNC(=O)c1ccc2ccccc2c1)NC1CCCCC1,13 µg/mL
4,COC(=O)c1scc(C)c1NC(=O)c1cccc(C#N)c1,> 45 µg/mL
5,CSc1nc(NS(=O)(=O)c2ccc(F)cc2F)nn1C,> 48 µg/mL
6,O=C(COC(=O)c1nc(Cl)ccc1Cl)c1ccc[nH]1,31.3 µg/mL
7,O=C(NCCC(=O)N1CCCCCCC1)c1ccc(Cl)cc1,> 48.4 µg/mL
8,Cc1ccc(Oc2ccc(NS(=O)(=O)c3cccc(C(=O)O)c3)cc2)cc1,57.2 µg/mL
9,CCCCNC(=O)CN1C(=O)NC2(CCOc3ccccc32)C1=O (stereo not given),> 49.7 µg/mL
10,Cc1c(NC(=O)Nc2ccc3c(c2)OCO3)cccc1[N+](=O)[O-],0.8 µg/mL
11,CCOCc1c(C(=O)NC2CCCCCC2)oc2ccccc12,0.9 µg/mL
12,O=C(c1ccc(Cl)cc1)N1CCN(c2cccc3[nH]ccc23)CC1,35.6 µg/mL
13,O=C(NCc1ccco1)c1ccc(COc2ccccc2[N+](=O)[O-])o1,> 51.3 µg/mL
14,COCc1cc(=O)[nH]c(N2CCN(C(=O)c3ccco3)CC2)n1,> 47.7 µg/mL
15,N#CCC(=O)Nc1ccc(C(=O)OCC(=O)c2c[nH]c3ccccc23)cc1,4.7 µg/mL
16,N/C(=N/OC(=O)c1ccc(Cl)cc1)c1ncc([N+](=O)[O-])s1,0.2 µg/mL
17,CNCCCC12CCC(c3ccccc31)c1ccccc12.Cl,45.8 µg/mL and > 47.1 µg/mL
18,O=C(CSc1nc2ccccc2o1)NC1CCCC1,> 41.5 µg/mL
19,Cc1nccn1CC(=O)N/N=C/c1ccccc1O,> 38.7 µg/mL
20,Nc1ncc([N+](=O)[O-])cc1S(=O)(=O)c1ccccc1,3.8 µg/mL
21,O=C(NCC(c1ccco1)N1CCOCC1)c1cccc(Cl)c1 (stereo not given),> 50.2 µg/mL
22,Cc1cnc(C(=O)OCC(=O)NCc2ccc(Cl)cc2)cn1,> 48 µg/mL
23,Clc1cnc2nc(SC/C=C/c3ccccc3)[nH]c2c1,< 0.2 µg/mL
24,COc1cc(/C=C/C(=O)OCC(=O)N2CCCc3ccccc32)ccc1O,33.1 µg/mL

row,Compound,solubility kinetic
1,COc1ccc(S(=O)(=O)N2CCN(C(=O)c3cc4c(s3)CCC4)CC2)cc1,7.7 µg/mL
2,Cc1ccc(C(=O)NCC(=O)OCC(=O)NC2CCCCCCC2)cc1,53.2 µg/mL
3,Cc1ccccc1Cn1cc(C)c(=O)[nH]c1=O,29.5 µg/mL
4,CCOC(=O)c1[nH]cnc1C(=O)Nc1ccccc1OC,10.3 µg/mL
5,O=c1[nH]c2ccc(NC(=S)NCc3ccccc3)cc2[nH]1,7.6 µg/mL
6,CCOc1ccc2nc(NC(=O)c3ccco3)sc2c1,6.9 µg/mL
7,CCCCNC(=O)C1CCC(=O)N1CCc1ccccc1 (stereo not given),42.4 µg/mL
8,COCC(=O)Nc1ccc2c(c1)OCC(=O)N2Cc1ccccc1F,46.4 µg/mL
9,CC1(C)C(c2cccs2)=[N+]([O-])C2(CCCCC2=O)N1O (stereo not given),41.4 µg/mL
10,CC(Nc1cccc(F)c1)C(=O)Nc1ccc(S(N)(=O)=O)cc1 (stereo not given),> 50.6 µg/mL
11,COc1ccccc1N1CCN(CC(=O)Nc2nccs2)CC1,> 49.9 µg/mL
12,O=C(NC1CCCCC1)c1cc(F)cc2c1OCOC2,28.9 µg/mL
13,O=C(O)c1nn(-c2ccc(F)cc2)ccc1=O,> 35.1 µg/mL
14,Nc1cc(-c2ccccc2)n2c(n1)nc1ccccc12,5.7 µg/mL
15,COc1ccc(NC(=O)c2ccc(NC(=O)C3CC3)cc2)cc1,< 0.3 µg/mL
16,CN(C)S(=O)(=O)NCCNc1ccc(C(F)(F)F)cc1[N+](=O)[O-],18.2 µg/mL
17,O=C(NCCN1CCOCC1)c1cccc(Br)c1,46.4 µg/mL
18,CC1=C([N+](=O)[O-])C(c2ccc(O)c(O)c2)NC(=O)N1 (stereo not given),> 39.8 µg/mL
19,CC(C)c1ccc(NC(=O)CCCC(=O)NCCc2ccccc2)cc1,6 µg/mL
20,Cn1c(=O)c2c(ncn2CC(O)CNc2ccc(F)cc2)n(C)c1=O (stereo not given),> 52.1 µg/mL
21,COC(=O)CC(c1ccc(C(C)C)cc1)n1cccc1 (stereo not given),2.5 µg/mL
22,O=c1[nH]cc(-c2ccc(Br)cc2)n1Cc1ccccc1,1.6 µg/mL
23,CCCCNc1nc(Cl)nc(Nc2ccc(C)cc2)n1,1.7 µg/mL
24,CC(SCc1ccccc1)C(=O)Nc1ccccc1F (stereo not given),35.1 µg/mL

row,Compound,solubility kinetic
1,Nc1c(C(=O)N2CCOCC2)oc2ccccc12,> 36.9 µg/mL
2,O=C(O)[C@H](Cc1ccccc1)NC(=O)N1CCCCCC1,> 43.6 µg/mL
3,c1ccc(CNc2c3ccccc3nc3ccccc23)cc1,40.5 µg/mL
4,Fc1ccccc1Oc1nc(-c2ccncc2)nc2ccccc12,< 0.2 µg/mL
5,CC(C)Cc1ccc(S(=O)(=O)NCC2CCCO2)cc1 (stereo not given),33.6 µg/mL
6,CCOc1ccccc1OCCC(=O)OCC(=O)c1ccc[nH]1,21.8 µg/mL
7,OCc1c(Cl)nc2ccccn12,> 27.4 µg/mL
8,O=C(C1CC1)N1CCc2sccc2C1c1ccc(Cl)cc1 (stereo not given),< 0.7 µg/mL
9,Cc1cccc(N2CN(S(=O)(=O)c3cccc([N+](=O)[O-])c3)c3nc4ccccc4nc32)c1,0.7 µg/mL
10,CCn1c(=O)c(C(=O)NC(C)c2ccccc2)c(O)c2ccccc21 (stereo not given),< 0.4 µg/mL
11,CC(C)COc1ccc(Br)cc1CNC(C)(C)C.Cl,50.7 µg/mL
12,COc1ccc(-c2c3c(=O)n(C)c(=O)n(C)c3cn2-c2ccc(O)cc2)cc1,20.4 µg/mL
13,Cc1cccc(OCCN2CCOCC2)c1C,24.4 µg/mL
14,O=C(COC(=O)c1ccc(Cl)nc1)Nc1ccc2c(c1)OCCO2,4.8 µg/mL
15,CCc1sc(C(=O)NCc2ccco2)cc1Br,25.9 µg/mL
16,O=C(COC(=O)C1CCCC1)NCc1ccc(Cl)cc1,> 44.4 µg/mL
17,CCNC(=S)Nc1ccc(OC(F)(F)F)cc1,> 39.6 µg/mL
18,CCCCC(CCC(=O)Nc1cccc([N+](=O)[O-])c1)C(=O)O (stereo not given),43.7 µg/mL
19,Cc1cc(C(=O)Nc2ccccc2N2CCOCC2)c(C)o1,10.3 µg/mL
20,O=C(Nc1cccc2ncccc12)c1cccc(Br)c1,16.2 µg/mL
21,O=C(COc1ccccc1F)NCCc1ccc2c(c1)OCCO2,> 49.7 µg/mL
22,NC(=O)C1CCN(C(=O)c2ccccc2CCc2ccccc2)CC1,> 50.5 µg/mL
23,CC(NC(=O)c1ccncc1)c1ccccc1 (stereo not given),26.5 µg/mL
24,Cc1ccc(S(=O)(=O)N2CCC(C(=O)NC3CC3)CC2)cc1,> 48.4 µg/mL
